The record followed here is ChEMBL document CHEMBL5291721, “A preclinical secondary pharmacology resource illuminates target-adverse drug reaction associations of marketed drugs” (Nat Commun, 2023).

Experiment [1] has as its target Growth hormone secretagogue receptor type 1 (Homo sapiens, UniProt Q92847).
Experiment [2] addresses T1, 5-hydroxytryptamine receptor 2B (Homo sapiens, UniProt P41595). Format: functional, cell-based.
The next experiment has as its target Vasopressin V1a receptor (Homo sapiens, UniProt P37288).
Experiment [3] addresses T2, Cannabinoid receptor 1 (Homo sapiens, UniProt P21554). Format: functional, cell-based.
The target of experiment [4] is T3, Alpha-2B adrenergic receptor (Homo sapiens, UniProt P18089).
T3 sequence (P18089 whole entry): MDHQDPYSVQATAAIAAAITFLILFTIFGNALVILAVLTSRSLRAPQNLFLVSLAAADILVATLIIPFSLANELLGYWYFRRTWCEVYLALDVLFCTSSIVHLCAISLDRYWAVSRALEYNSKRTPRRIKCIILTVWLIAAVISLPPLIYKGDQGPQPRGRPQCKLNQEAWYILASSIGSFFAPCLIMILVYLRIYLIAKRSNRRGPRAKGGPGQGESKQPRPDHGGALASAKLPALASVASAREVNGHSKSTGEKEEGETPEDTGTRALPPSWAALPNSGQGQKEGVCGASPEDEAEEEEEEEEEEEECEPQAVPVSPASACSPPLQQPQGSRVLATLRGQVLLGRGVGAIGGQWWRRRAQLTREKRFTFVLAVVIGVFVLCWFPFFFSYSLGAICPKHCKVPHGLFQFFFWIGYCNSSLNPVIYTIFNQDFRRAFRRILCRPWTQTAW

Experiment [5] has as its target Beta-1 adrenergic receptor (Homo sapiens, UniProt P08588). In kind it is functional.
Experiment [6] addresses T2, Cannabinoid receptor 1. Format: functional, cell-based. The source holds these as a separate data set.
Experiment [7] deals with T4, 5-hydroxytryptamine receptor 2C (Homo sapiens, UniProt P28335).
T4 sequence (P28335 whole entry): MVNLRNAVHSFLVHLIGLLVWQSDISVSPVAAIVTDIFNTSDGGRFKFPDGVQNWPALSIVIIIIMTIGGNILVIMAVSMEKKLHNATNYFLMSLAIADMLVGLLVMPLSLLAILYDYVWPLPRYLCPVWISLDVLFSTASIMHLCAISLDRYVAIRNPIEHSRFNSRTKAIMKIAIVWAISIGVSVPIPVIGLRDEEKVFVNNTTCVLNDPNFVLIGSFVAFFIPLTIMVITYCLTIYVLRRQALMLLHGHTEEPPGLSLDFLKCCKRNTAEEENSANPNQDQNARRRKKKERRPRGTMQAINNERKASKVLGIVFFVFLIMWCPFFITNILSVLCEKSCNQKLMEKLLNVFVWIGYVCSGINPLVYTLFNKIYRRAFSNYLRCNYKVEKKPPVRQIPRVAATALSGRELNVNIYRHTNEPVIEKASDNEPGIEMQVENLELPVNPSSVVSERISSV

Experiment [8] concerns the target Sodium-dependent dopamine transporter (Homo sapiens, UniProt Q01959).
Experiment [9] has as its target T1, 5-hydroxytryptamine receptor 2B. In kind it is functional, cell-based. This is another data set of the same source.
The target of experiment [10] is Gamma-aminobutyric acid receptor subunit alpha-1 (Rattus norvegicus, UniProt P62813).
The target of the next experiment is T5, B2 bradykinin receptor (Homo sapiens, UniProt P30411).
T5 sequence (P30411 whole entry): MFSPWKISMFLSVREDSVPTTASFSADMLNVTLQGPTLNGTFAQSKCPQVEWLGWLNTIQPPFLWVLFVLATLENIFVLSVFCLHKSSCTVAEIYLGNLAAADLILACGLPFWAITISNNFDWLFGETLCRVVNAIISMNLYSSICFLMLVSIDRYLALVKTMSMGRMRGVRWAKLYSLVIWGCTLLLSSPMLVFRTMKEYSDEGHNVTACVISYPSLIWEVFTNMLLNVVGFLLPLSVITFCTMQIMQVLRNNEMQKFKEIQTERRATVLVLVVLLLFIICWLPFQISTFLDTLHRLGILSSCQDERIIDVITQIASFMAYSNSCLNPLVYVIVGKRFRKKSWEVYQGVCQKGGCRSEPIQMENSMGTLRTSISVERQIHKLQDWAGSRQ

The target in the next experiment is T6, Adenosine receptor A3 (Homo sapiens, UniProt P0DMS8).
T6 sequence (P0DMS8 whole entry): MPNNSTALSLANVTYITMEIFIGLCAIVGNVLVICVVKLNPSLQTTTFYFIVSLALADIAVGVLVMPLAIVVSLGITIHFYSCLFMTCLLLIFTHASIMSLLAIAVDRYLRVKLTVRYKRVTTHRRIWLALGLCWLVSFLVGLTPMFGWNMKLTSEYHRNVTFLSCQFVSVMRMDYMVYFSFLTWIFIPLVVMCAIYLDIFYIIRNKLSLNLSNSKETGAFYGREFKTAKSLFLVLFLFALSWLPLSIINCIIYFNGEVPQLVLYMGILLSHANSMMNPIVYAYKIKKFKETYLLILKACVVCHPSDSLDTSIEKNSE

The target in experiment [11] is T7, Muscarinic acetylcholine receptor M1 (Homo sapiens, UniProt P11229).
T7 sequence (P11229 whole entry): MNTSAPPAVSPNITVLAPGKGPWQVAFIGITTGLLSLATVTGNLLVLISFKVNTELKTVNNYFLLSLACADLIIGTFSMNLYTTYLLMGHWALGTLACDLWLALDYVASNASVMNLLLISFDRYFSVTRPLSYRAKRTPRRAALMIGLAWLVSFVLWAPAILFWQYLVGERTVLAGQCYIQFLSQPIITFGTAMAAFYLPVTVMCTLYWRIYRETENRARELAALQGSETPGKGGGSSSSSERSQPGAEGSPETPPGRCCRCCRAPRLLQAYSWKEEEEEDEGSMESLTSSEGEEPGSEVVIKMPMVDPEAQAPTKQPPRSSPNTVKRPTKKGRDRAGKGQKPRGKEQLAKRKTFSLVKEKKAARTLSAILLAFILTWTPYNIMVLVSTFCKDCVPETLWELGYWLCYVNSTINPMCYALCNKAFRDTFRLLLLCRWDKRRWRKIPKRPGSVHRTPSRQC
In kind it is functional, cell-based.
Also: assay procedure not described here.

Vasopressin V1a receptor, sequence (P37288 whole entry): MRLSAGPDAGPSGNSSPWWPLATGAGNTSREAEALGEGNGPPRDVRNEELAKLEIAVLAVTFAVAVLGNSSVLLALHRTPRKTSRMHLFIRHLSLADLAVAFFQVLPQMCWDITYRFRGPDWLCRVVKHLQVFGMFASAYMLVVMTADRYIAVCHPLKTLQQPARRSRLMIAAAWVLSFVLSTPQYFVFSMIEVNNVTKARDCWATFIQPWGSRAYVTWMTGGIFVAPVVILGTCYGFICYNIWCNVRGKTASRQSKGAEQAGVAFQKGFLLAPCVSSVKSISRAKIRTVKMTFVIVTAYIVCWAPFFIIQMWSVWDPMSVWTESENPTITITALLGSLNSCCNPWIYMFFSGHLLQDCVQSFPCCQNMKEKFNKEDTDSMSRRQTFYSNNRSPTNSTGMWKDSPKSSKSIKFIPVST
Beta-1 adrenergic receptor, sequence (P08588 whole entry): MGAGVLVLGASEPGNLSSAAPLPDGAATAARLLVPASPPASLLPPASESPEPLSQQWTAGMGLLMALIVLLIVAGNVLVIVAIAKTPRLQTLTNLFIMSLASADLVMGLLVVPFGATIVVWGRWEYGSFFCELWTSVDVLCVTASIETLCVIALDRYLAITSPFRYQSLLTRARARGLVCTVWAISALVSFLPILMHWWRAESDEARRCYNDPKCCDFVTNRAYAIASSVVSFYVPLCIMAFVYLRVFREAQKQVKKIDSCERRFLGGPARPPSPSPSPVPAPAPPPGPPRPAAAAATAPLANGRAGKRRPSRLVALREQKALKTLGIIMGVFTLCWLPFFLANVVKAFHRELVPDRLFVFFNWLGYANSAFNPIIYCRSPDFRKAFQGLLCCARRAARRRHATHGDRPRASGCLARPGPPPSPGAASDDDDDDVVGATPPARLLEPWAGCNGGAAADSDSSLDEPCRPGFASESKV
Sodium-dependent dopamine transporter, sequence (Q01959 whole entry): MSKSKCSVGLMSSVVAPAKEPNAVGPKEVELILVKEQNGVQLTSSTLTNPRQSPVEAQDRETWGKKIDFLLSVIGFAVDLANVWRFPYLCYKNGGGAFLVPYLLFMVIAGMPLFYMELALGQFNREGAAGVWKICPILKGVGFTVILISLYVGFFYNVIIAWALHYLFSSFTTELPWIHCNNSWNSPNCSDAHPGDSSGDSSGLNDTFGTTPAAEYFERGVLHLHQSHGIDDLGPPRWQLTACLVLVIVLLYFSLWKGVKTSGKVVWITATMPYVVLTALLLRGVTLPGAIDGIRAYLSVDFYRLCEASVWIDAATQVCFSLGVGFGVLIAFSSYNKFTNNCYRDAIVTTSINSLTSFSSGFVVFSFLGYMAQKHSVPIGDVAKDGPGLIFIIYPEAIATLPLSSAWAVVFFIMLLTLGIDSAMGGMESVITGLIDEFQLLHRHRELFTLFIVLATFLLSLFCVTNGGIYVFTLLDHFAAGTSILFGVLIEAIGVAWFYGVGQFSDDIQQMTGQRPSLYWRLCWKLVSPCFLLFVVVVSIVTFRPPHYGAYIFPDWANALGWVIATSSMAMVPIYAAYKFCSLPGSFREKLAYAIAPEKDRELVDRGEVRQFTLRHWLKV
T1 sequence (P41595 whole entry): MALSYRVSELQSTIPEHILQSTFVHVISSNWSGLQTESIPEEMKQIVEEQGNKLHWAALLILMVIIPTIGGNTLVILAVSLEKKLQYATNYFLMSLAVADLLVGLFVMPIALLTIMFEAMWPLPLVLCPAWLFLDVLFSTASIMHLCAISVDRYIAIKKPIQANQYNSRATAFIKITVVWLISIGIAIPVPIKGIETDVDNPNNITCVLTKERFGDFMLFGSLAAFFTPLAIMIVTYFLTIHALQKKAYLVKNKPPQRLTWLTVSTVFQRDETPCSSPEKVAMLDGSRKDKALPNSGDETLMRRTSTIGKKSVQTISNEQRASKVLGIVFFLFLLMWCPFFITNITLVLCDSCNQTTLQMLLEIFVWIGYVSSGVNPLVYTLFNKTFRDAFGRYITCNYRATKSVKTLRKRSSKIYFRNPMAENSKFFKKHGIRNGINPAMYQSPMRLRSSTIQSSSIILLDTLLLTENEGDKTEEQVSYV
Growth hormone secretagogue receptor type 1, sequence (Q92847 whole entry): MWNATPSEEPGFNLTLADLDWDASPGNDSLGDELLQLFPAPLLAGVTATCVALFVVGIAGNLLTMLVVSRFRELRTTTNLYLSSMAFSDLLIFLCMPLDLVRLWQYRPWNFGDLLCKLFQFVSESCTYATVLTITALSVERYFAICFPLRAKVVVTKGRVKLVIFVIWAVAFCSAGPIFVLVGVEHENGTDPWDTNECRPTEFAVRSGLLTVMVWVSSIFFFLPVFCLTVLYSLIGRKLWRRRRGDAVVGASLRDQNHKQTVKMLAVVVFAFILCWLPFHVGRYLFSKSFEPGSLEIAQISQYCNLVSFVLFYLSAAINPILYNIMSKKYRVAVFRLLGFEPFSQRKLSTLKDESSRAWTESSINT
Gamma-aminobutyric acid receptor subunit alpha-1, sequence (P62813 whole entry): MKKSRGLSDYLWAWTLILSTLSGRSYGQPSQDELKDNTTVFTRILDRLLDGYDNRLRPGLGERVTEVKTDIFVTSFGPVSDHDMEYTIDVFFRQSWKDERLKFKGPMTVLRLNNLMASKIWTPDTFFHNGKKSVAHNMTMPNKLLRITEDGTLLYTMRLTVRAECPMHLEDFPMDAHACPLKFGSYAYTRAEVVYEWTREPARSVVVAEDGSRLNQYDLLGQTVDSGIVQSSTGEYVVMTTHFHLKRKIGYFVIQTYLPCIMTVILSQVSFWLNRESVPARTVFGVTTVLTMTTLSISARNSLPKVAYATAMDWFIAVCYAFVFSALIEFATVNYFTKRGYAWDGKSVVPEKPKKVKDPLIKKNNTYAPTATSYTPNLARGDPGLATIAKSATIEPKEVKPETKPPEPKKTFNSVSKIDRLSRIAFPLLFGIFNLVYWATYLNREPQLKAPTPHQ
T2 sequence (P21554 whole entry): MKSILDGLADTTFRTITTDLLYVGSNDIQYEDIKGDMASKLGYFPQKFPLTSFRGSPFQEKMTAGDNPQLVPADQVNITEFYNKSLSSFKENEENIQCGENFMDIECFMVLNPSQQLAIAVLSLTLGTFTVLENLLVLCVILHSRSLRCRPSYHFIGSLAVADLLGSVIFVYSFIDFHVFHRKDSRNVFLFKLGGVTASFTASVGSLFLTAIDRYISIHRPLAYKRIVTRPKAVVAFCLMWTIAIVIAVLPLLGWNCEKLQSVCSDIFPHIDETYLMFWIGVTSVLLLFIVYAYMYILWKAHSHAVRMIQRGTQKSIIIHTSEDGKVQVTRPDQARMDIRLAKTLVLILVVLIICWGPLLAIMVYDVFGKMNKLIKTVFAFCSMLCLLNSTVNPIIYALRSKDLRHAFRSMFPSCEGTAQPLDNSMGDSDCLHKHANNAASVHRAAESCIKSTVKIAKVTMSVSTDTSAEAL

Turning to `CN(C)C/C=C/C(=O)Nc1cc2c(Nc3ccc(F)c(Cl)c3)ncnc2cc1O[C@H]1CCOC1` [AFATINIB], the AC50 was more than 30 µM in experiment [1]; more than 30 µM in experiment [2]; more than 30 µM on Vasopressin V1a receptor; more than 30 µM on Cannabinoid receptor 1 [3]; 0.87 µM in experiment [4]; more than 30 µM in [5]. The AC50 at Cannabinoid receptor 1 [6] was more than 30 µM; in [7], more than 30 µM; in [8], 23.2 µM; in experiment [9], more than 30 µM; in experiment [10], more than 30 µM; on B2 bradykinin receptor, more than 30 µM.
With `CC1=C(C(=O)OC(C)C)C(c2cccc([N+](=O)[O-])c2)C(C(=O)OC2CN(C(c3ccccc3)c3ccccc3)C2)=C(N)N1` (stereo not given) [AZELNIDIPINE], the AC50 in [1] was more than 30 µM; in [2], more than 30 µM; on Vasopressin V1a receptor, more than 30 µM; on Cannabinoid receptor 1 [3], more than 30 µM; in experiment [4] it was more than 30 µM; in [5], 27 µM. Moreover, the half-maximal activity concentration (AC50) on Cannabinoid receptor 1 [6] is more than 30 µM; in experiment [7], more than 30 µM; in experiment [8], 26 µM; in experiment [9], more than 30 µM; in [10] it was more than 30 µM; on B2 bradykinin receptor, more than 10 µM.
Take `O=C(O)COCCN1CCN(C(c2ccccc2)c2ccc(Cl)cc2)CC1` (stereo not given) [CETIRIZINE]: the AC50 was more than 30 µM in [1]; more than 10 µM on Vasopressin V1a receptor; more than 30 µM at Adenosine receptor A3; more than 30 µM on Cannabinoid receptor 1 [3]; more than 10 µM in [4]; more than 10 µM in experiment [5]. The AC50 (on Cannabinoid receptor 1 [6]; in [7]; at B2 bradykinin receptor) was more than 30 µM throughout.
Take `CNCCc1ccc(OC(=O)C(C)C)c(OC(=O)C(C)C)c1` [IBOPAMINE]: the AC50 (in experiment [1]; in [2]; at Vasopressin V1a receptor; at Cannabinoid receptor 1 [3]; in experiment [4]; in experiment [5]) was more than 30 µM throughout. Further, the half-maximal activity concentration (AC50) (on Cannabinoid receptor 1 [6]; in experiment [7]; in [8]; in experiment [9]; in experiment [10]; on B2 bradykinin receptor) was more than 30 µM throughout.
`O=C(CCC/C=C\C[C@@H]1[C@@H](CC[C@@H](O)CCc2ccccc2)[C@H](O)C[C@@H]1O)OCCCCO[N+](=O)[O-]` [LATANOPROSTENE BUNOD] yielded a concentration at half-maximal activity (AC50) in experiment [11] of more than 30 µM.
For `COC(=O)C1=C(C)NC(C)=C(C(=O)OCCN2CCN(C(c3ccccc3)c3ccccc3)CC2)C1c1cccc([N+](=O)[O-])c1` (stereo not given) [MANIDIPINE 6300], the AC50 is more than 30 µM in experiment [1]; more than 30 µM in experiment [2]; more than 30 µM on Vasopressin V1a receptor; 26 µM on Cannabinoid receptor 1 [3]; more than 30 µM in experiment [4]; more than 30 µM in [5]. In addition, the half-maximal activity concentration (AC50) on Cannabinoid receptor 1 [6] was more than 30 µM; in [7], more than 30 µM; in [8], 23 µM; in [9], more than 30 µM; in experiment [10], more than 30 µM; at B2 bradykinin receptor it was more than 30 µM.
Take `COC(=O)C[C@](O)(CCCC(C)(C)O)C(=O)O[C@@H]1C(OC)=C[C@]23CCCN2CCc2cc4c(cc2[C@H]13)OCO4` [OMACETAXINE MEPESUCCINATE]: the AC50 in experiment [11] was more than 30 µM.
On to `OC[C@H]1O[C@@H](n2cnc3c2NC=NC[C@H]3O)C[C@@H]1O` [PENTOSTATIN], for which the AC50 (in experiment [1]; in [2]; at Vasopressin V1a receptor; at Cannabinoid receptor 1 [3]; in experiment [4]; in [5]) was more than 30 µM throughout. In addition, the AC50 is more than 30 µM on Cannabinoid receptor 1 [6]; more than 10 µM in experiment [7]; more than 30 µM in experiment [8]; more than 30 µM in [9]; more than 30 µM in experiment [10]; more than 30 µM on B2 bradykinin receptor.
In the case of `Cc1cccc(C)c1NC(=O)CC12CCCN1CCC2` [PILSICAINIDE], the AC50 (in experiment [1]; in experiment [2]; at Vasopressin V1a receptor; at Cannabinoid receptor 1 [3]; in experiment [4]; in experiment [5]) was more than 30 µM in each case. Besides, the AC50 (on Cannabinoid receptor 1 [6]; in experiment [7]; in [8]; in experiment [9]; in experiment [10]; at B2 bradykinin receptor) was more than 30 µM each time.
`COc1cc(C)c2c(Oc3cccc(C(F)(F)F)c3)c(OC)cc(NC(C)CCCN)c2n1` (stereo not given) [TAFENOQUINE] gave a half-maximal activity concentration (AC50) in experiment [11] of more than 3 µM.
In the case of `O=C1OC(OC(=O)c2cccnc2Nc2cccc(C(F)(F)F)c2)c2ccccc21` (stereo not given) [TALNIFLUMATE], the AC50 (in experiment [1]; in experiment [2]; at Vasopressin V1a receptor; at Cannabinoid receptor 1 [3]; in [4]; in experiment [5]) was more than 30 µM each time. The concentration at half-maximal activity (AC50) (on Cannabinoid receptor 1 [6]; in experiment [7]; in experiment [8]; in [9]; in [10]; at B2 bradykinin receptor) was more than 30 µM in each case.
With `C[C@]12C=CC(=O)C=C1CC[C@@H]1[C@@H]2CC[C@]2(C)OC(=O)CC[C@@H]12` [TESTOLACTONE], the AC50 in [1] is more than 10 µM; in experiment [2], more than 30 µM; at Vasopressin V1a receptor it was more than 10 µM; at Cannabinoid receptor 1 [3] it was more than 30 µM; in [4] it was more than 10 µM; in experiment [5], more than 10 µM. The half-maximal activity concentration (AC50) on Cannabinoid receptor 1 [6] is more than 30 µM; in experiment [7], more than 30 µM; in experiment [8] it was more than 10 µM; in experiment [9], more than 30 µM; in experiment [10], more than 10 µM; at B2 bradykinin receptor, more than 10 µM.
For `CCOC(=O)c1c(CSc2ccccc2)n(C)c2cc(Br)c(O)c(CN(C)C)c12` [UMIFENOVIR], the AC50 was more than 30 µM in [1]; more than 30 µM in [2]; more than 30 µM at Vasopressin V1a receptor; more than 30 µM on Cannabinoid receptor 1 [3]; 26 µM in experiment [4]; more than 30 µM in experiment [5]. Also, the concentration at half-maximal activity (AC50) on Cannabinoid receptor 1 [6] was more than 30 µM; in experiment [7], 2.6 µM; in [8] it was 9.1 µM; in [9], more than 30 µM; in experiment [10], more than 30 µM; on B2 bradykinin receptor, more than 30 µM.

By AC50 is commonly meant the midpoint of the concentration-response curve, whichever way the signal moves. A lower AC50 goes with greater potency.
